Reference: ChEMBL document CHEMBL5126556, “Recent advances in natural anti-obesity compounds and derivatives based on in vivo evidence: A mini-review” (Eur J Med Chem, 2022)

Assays:
Mus musculus [1] = experiment: Anti-obesity activity in male C57BL/6 mouse model of high-fat diet induced obesity assessed as body weight change at 25 mg/kg, ip administered once a day for 13 weeks relative to control; assay type: functional
[2] = biological target: T1, Dihydrolipoyllysine-residue acetyltransferase component of pyruvate dehydrogenase complex, mitochondrial (Homo sapiens, UniProt P10515); experiment: Binding affinity to recombinant GFP fused […] (unknown origin) by Lip-SMap analysis
T1 sequence (P10515 whole entry): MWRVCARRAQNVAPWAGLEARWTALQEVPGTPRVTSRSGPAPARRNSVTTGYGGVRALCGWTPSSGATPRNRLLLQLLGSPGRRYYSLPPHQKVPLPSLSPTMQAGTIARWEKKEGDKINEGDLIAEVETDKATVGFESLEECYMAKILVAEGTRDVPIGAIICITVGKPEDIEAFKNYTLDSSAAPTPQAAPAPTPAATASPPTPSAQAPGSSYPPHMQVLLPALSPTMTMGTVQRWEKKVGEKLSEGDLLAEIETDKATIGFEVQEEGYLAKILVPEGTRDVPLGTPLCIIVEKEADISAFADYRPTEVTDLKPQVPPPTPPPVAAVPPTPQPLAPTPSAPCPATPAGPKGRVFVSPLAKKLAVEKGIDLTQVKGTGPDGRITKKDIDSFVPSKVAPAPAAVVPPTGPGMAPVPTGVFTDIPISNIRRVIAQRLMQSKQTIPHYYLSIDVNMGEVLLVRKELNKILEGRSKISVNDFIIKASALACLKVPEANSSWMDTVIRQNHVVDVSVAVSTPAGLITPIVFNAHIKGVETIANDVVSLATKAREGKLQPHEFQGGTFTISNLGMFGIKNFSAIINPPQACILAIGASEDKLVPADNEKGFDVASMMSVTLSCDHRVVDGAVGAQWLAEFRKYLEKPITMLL

Mus musculus [3] = experiment: Anti-obesity activity in male C57BL/6 mouse model of high-fat diet induced obesity assessed as body weight change at 2.5 mg/kg, ip administered once a day for 8 weeks relative to control; assay type: functional
Mus musculus [4] = experiment: Anti-obesity activity in high-fat diet induced obesity model of C57BL/6J mouse assessed as body weight loss at 20 mg/kg/day, po administered once daily for 14 days relative to control; assay type: functional; conditions: time 14 day
Mus musculus [5] = experiment: Anti-obesity activity in high-fat diet induced obesity model of C57BL/6J mouse assessed as body weight loss at 40 mg/kg/day, ip administered once daily for 14 days relative to control; assay type: functional; conditions: time 14 day
[6] = Acute toxicity in po dosed C57BL/6J mouse assessed as lethal dose; assay type: organism-based; conditions: in vivo
Mus musculus [7] = experiment: Anti-obesity activity in male C57BL/6 mouse model of high-fat diet induced obesity assessed as body weight change at 15 mg/kg, ip administered once a day for 8 weeks relative to control; assay type: functional
Mus musculus [8] = experiment: Anti-obesity activity in male C57BL/6 mouse model of high-fat diet induced obesity assessed as body weight change at 1 mg/kg, po administered once a week for 7 weeks relative to control; assay type: functional
Mus musculus [9] = experiment: Anti-obesity activity in male C57BL/6 mouse model of high-fat diet induced obesity assessed as body weight change administered orally with 0.5 g in 500 g of HFD diet for 13 weeks relative to control; assay type: functional; conditions: route po, at 0.5 g
[10] = biological target: BDNF/NT-3 growth factors receptor (Homo sapiens, UniProt Q16620); experiment: Binding affinity to recombinant human TrkB receptor ECD assessed as dissociation constant
Chain of BDNF/NT-3 growth factors receptor (Q16620 whole entry, the tested form may be a part): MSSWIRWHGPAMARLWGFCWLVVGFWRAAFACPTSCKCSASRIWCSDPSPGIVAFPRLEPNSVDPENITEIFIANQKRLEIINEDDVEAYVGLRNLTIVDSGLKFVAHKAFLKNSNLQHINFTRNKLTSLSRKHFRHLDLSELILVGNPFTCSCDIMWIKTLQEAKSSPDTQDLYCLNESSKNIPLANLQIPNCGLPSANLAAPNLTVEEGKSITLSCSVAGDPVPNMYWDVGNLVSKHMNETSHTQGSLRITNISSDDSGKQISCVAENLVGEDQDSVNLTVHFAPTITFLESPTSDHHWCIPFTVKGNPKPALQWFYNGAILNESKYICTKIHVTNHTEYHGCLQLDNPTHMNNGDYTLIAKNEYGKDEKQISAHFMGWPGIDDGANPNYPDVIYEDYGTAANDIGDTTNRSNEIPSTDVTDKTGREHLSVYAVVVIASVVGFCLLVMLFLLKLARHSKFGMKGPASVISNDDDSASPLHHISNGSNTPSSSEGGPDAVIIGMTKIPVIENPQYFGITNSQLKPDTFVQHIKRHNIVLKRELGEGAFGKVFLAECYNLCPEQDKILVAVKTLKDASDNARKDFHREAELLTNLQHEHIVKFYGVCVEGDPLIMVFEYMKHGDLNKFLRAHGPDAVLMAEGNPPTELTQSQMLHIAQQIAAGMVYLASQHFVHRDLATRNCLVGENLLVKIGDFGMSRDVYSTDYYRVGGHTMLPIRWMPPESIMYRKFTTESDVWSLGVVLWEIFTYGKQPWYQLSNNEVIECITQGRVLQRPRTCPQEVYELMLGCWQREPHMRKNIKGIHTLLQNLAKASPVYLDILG

Mus musculus [11] = experiment: Anti-obesity activity in female C57BL/6 mouse model of high-fat diet induced obesity assessed as body weight change administered orally for 20 weeks relative to control; assay type: functional; conditions: route po
[12] = biological target: T2, Pancreatic triacylglycerol lipase (Sus scrofa, UniProt P00591); experiment: Inhibition of porcine pancreatic lipase using trioleate as substrate assessed as inhibition of substrate hydrolysis measured for 10 mins
T2 sequence (P00591 whole entry): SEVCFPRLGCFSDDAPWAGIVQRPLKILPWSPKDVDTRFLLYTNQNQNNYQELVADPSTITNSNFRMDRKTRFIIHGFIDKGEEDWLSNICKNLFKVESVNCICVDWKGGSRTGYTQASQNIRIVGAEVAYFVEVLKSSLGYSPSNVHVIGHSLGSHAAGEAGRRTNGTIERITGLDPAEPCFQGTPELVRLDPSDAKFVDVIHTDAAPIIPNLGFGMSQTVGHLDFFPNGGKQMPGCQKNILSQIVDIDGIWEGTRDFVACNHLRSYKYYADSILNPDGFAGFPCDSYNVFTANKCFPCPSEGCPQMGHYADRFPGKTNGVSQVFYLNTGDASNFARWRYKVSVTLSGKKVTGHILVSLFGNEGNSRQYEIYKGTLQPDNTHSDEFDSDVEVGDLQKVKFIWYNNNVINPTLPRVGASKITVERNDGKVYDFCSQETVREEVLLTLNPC

Mus musculus [13] = experiment: Anti-obesity activity in male C57BL/6 mouse model of high-fat diet induced obesity assessed as body weight change at 50 mg/kg, po administered once a day for 6 weeks relative to control; assay type: functional
Mus musculus [14] = experiment: Anti-obesity activity in male C57BL/6 mouse model of high-fat diet induced obesity assessed as body weight change at 30 mg/kg, po administered once a day for 10 weeks relative to control; assay type: functional
Mus musculus [15] = experiment: Anti-obesity activity in high-fat diet induced C57BL/6 obese mouse model assessed as body weight change at 30 mg/kg, po administered once daily for 10 weeks relative to control; assay type: functional
Mus musculus [16] = experiment: Anti-obesity activity in male C57BL/6 mouse model of high-fat diet induced obesity assessed as body weight change at 50 mg/kg, po administered once a day for 8 weeks relative to control; assay type: functional
Mus musculus [17] = experiment: Anti-obesity activity in male C57BL/6 mouse model of high-fat diet induced obesity assessed as body weight change at 50 mg/kg, ip administered every other day for 5 weeks relative to control; assay type: functional

## CC(C)(O)[C@@H]1CC[C@](C)([C@H]2[C@@H](O)C[C@@]3(C)[C@@H]4C[C@H](O[C@@H]5O[C@H](CO)[C@@H](O)[C@H](O)[C@H]5O)[C@H]5C(C)(C)[C@@H](O[C@@H]6OC[C@@H](O)[C@H](O)[C@H]6O)CC[C@@]56C[C@@]46CC[C@]23C)O1
Mus musculus [1]
  Activity: 25.4%

## CC(C)=CCC[C@]1(C)[C@@H](CC=C(C)C)C[C@]2(CC=C(C)C)C(=O)C(CC=C(C)C)=C(O)[C@@]1(C(=O)C(C)C)C2=O
[2]
  Kd: 578 nM
Mus musculus [3]
  Activity: -13.7%

## CC1(C)[C@@H](O)C(O)=C[C@]2(C)[C@H]3C(=O)C=C4[C@@H]5C[C@@](C)(C(=O)O)CC[C@]5(C)CC[C@@]4(C)[C@]3(C)CC[C@@H]12
Mus musculus [4]
  Activity: 26%
Mus musculus [5]
  Activity: 20%
[6]
  LD50: 940 mg/kg

## O=C(/C=C/c1ccc(O)c(O)c1)c1ccc(O)cc1O [BUTEIN]
Mus musculus [7]
  Activity: 42.9%

## O=C1N[C@@H]2C(=C[C@H](O)[C@@H](O)[C@H]2O)c2cc3c(c(O)c21)OCO3 [NARCICLASINE]
Mus musculus [8]
  Activity: 23.6%

## O=c1c(-c2ccc(O)c(O)c2)coc2cc(O)ccc12
Mus musculus [9]
  Activity: 63.5%

## O=c1cc(-c2ccccc2)oc2c(O)c(O)ccc12 [7,8-DIHYDROXYFLAVONE]
[10]
  Kd: 10 nM
Mus musculus [11]
  Activity: 72.2%

## CCCCC/C=C\C/C=C\C[C@@H](C[C@@H]1OC(=O)[C@H]1CCCCCC)OC(=O)[C@H](CC(C)C)NC=O
[12]
  IC50: 140 nM

## C[C@H](CC(=O)C[C@@H](C)[C@H]1C[C@H](O)[C@@]2(C)C3=C(C(=O)C[C@]12C)[C@@]1(C)CCC(=O)C(C)(C)[C@@H]1C[C@@H]3O)C(=O)O [GANODERIC ACID A]
Mus musculus [13]
  Activity: 17.4%

## O=c1oc2cc(O)ccc2c2ccc(O)cc12
Mus musculus [14]
  Activity: 30.8%
Mus musculus [15]
  Activity: 42.7%

## COc1cc(O)c(C(=O)[C@@H]2[C@H](CC=C(C)C)C(C)=CC[C@H]2c2ccccc2)c(O)c1 [PANDURATIN A]
Mus musculus [16]
  Activity: 15%

## O=Cc1c(-c2nc3ccccc3c(=O)[nH]2)[nH]c2ccccc12
Mus musculus [17]
  Activity: -11.8%
